Reference: patent publication EP2151237A1, “PHARMACEUTICAL COMPOSITION COMBINING A NON-STEROIDAL ANTI-INFLAMMATORY AGENT AND AN ANTICONVULSANT AGENT” (priority 2007, dated 2008)

Assays:
[1] = test system: α2δ, which are ancillary subunits of voltage-activated calcium channels; conditions: cited from earlier work
[2] = test system: other common receptors; conditions: benzodiazepine, glutamate, NMDA, α1, α2, β-adrenergic, muscarinic, nicotinic, dopaminergic, histaminic, serotoninergic, opiate, canabinoid receptors, voltage-dependent calcium or sodium channels; cited from earlier work
[3] = cited from earlier work
[4] = test system: A-carrageenin-induced hyperalgesia; test: A-carrageenin-induced peripheral inflammatory hyperalgesia in rat paw, paw latency (SLP); conditions: for ED50: Rattus norvegicus, po, 2 h, read-out: DE50 value; for peak effect / maximum effect time: time after administration, ipsilateral paw SLP
Method: In this study, an isobolographic analysis was conducted in order to test the interaction between Gabapentin and Meloxicam administered under three different conditions.
Sprague-Dawley male rats were used, with an approximate weight of 200-300 g. […] Rats were used once and they only received one dose of the drugs or the combination thereof.
Rats were placed in a spin cylinder to 4 rpm and one of their paws was connected to a computer terminal. After acclimatization for 1 hour, rats were administered 100 µl of 1% A-carrageenin solution on the plantar surface of one rear paw.
These fixed dosage ratios were selected by a DE50 value range for each drug and reciprocal ratio.
In order to determine the interaction nature, the dosage-derived relationship-response for the total dosage of Gabapentin and Meloxicam, was compared to the theoretical dose relationship-additive by a standard parallel line method.

[5] = Chromatographic testing of blood samples (plasma concentrations); format: in vivo, Sprague-Dawley male rats; conditions: blood samples taken after the assessments
From the text: After such assessments, rats were anesthetized with halothane and blood samples were taken for chromatographic testing.

[6] = in its acid form; higher than Piroxicam; cited from earlier work
[7] = cited from earlier work; remark: listed apart in the source
[8] = test system: rat stomachs; conditions: cited from earlier work
[9] = cited from earlier work; remark: listed apart in the source

| SMILES | affinity to α2δ proteins [1] | affinity to other common receptors [2] | time to maximum plasma concentrations ([3]; after the administration) | binding to plasmatic proteins ([3]; plasma) | ED50 [4] | contralateral paw response latencies ([4]; non-swollen contralateral rear paw) | peak effect / maximum effect time [4] | effect of additional presence of Meloxicam on plasma concentrations of Gabapentin [5] | membrane solubility relative to Piroxicam [6] | solubility in water [7] | gastric ulcerogenicity [8] | concentration ([9]; approximately 50 minutes after the administration) | adherence to plasmatic proteins ([9]; in vivo) | part of the administered dose eliminated in urine ([9]; the rest is excreted in faeces) |
| --- | --- | --- | --- | --- | --- | --- | --- | --- | --- | --- | --- | --- | --- | --- |
| NCC1(CC(=O)O)CCCCC1 [Gabapentin] | high affinity | no affinity | ≤ 3 h | 3% | 19.2 mg/kg | did not show any alteration | 120 min |  |  |  |  |  |  |  |
| Cc1cnc(NC(=O)C2=C(O)c3ccccc3S(=O)(=O)N2C)s1 [Meloxicam, 4-hydroxy-2-methyl-N-(5-methyl-2-thiazolyl)-2H benzotiazine-3-carboxamide-1,1-dioxide] |  |  |  |  | 0.46 mg/kg |  | 120 min | does not alter | 10 fold | virtually insoluble | minimal gastric ulcerogenicity | 1600 ng/mL | 99% | Around a half |
